20 compounds from ChEMBL document CHEMBL3751794, “α-Aryl pyrrolidine sulfonamides as TRPA1 antagonists” (Bioorg Med Chem Lett, 2016) can be followed below.

Data set [1] is described as follows: Lipophilicity, log D of compound at pH 7.4. Format: physicochemical. The settings on record: buffer.
The target of data set [2] is Transient receptor potential cation channel subfamily A member 1 (Homo sapiens, UniProt O75762). Nature of the data set: Inhibition of human TRPA1.
The target of data set [3] is Transient receptor potential cation channel subfamily A member 1 (Rattus norvegicus, UniProt Q6RI86). In words: Inhibition of rat TRPA1.
The nature of data set [4]: Permeability across MDCK cells. Format: ADME, cell-based, Canis lupus familiaris. Particulars: dog, read-out: permeability.
A short description of data set [5]: Plasma protein binding in human. Format: ADME, cell-free. Particulars: read-out: PPB (converted).
A short description of data set [6]: Kinetic solubility of compound. The settings on record: read-out: Kinetic_solubility. Format: physicochemical.

Sequence of Transient receptor potential cation channel subfamily A member 1 (Homo sapiens, UniProt O75762) (O75762 whole entry): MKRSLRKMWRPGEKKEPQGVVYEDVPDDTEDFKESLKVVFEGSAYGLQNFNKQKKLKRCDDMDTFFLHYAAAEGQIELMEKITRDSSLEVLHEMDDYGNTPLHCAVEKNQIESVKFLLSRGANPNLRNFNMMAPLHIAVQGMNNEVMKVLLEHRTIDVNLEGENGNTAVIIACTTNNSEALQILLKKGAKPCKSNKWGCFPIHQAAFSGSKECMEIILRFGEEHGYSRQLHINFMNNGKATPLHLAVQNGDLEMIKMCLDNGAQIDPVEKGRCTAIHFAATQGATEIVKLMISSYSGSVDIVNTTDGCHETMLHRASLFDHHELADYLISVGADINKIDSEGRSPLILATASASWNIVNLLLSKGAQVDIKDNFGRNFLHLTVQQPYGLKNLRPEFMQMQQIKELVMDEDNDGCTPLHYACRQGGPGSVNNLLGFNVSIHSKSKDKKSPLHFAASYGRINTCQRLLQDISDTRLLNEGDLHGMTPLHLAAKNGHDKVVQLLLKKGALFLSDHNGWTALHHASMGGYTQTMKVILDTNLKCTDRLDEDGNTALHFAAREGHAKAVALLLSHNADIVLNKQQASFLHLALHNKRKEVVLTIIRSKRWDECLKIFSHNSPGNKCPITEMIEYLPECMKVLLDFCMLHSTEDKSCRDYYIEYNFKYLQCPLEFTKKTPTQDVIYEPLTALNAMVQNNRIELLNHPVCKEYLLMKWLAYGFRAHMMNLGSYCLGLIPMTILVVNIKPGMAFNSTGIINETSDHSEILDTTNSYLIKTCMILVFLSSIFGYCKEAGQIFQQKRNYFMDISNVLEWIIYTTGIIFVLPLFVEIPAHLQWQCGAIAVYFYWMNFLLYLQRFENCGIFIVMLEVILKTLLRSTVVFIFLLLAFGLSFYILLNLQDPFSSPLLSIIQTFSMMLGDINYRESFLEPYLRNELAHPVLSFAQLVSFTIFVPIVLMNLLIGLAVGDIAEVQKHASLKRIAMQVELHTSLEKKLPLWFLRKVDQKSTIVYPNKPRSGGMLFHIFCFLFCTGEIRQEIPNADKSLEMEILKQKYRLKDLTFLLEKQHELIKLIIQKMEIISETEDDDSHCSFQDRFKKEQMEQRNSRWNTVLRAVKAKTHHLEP
Sequence of Transient receptor potential cation channel subfamily A member 1 (Rattus norvegicus, UniProt Q6RI86) (Q6RI86 whole entry): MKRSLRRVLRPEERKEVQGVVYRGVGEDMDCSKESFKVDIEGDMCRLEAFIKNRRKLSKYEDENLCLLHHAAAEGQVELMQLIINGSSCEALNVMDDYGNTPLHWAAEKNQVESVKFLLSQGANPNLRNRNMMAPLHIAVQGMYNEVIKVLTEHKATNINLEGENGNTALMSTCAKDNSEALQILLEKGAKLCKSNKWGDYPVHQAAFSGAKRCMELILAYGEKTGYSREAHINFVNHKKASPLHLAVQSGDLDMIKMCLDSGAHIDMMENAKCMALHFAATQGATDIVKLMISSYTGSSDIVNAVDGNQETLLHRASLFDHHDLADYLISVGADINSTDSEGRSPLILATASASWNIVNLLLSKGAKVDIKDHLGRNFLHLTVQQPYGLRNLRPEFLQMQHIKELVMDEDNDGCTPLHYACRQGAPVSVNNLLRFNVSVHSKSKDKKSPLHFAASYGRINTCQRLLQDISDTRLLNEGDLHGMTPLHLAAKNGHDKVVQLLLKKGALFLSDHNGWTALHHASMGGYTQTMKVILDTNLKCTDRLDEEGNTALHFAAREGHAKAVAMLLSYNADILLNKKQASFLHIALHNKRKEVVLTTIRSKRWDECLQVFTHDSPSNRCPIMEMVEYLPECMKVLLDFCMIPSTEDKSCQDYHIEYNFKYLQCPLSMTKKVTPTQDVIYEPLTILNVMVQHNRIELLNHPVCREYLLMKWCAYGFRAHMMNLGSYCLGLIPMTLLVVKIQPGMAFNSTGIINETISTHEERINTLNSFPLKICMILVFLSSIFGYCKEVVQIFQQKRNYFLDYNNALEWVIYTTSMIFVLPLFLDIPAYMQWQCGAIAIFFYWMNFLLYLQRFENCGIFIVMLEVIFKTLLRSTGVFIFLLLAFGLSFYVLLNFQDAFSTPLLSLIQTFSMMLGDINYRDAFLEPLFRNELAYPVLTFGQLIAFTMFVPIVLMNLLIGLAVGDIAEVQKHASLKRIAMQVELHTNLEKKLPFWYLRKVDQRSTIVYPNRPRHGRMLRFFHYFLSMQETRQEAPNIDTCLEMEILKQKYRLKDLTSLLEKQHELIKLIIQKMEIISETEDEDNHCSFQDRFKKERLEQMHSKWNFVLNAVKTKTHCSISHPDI

For the compound `Cc1cc(S(=O)(=O)N2CC[C@@H](F)[C@@H]2c2ccc(F)cc2)cc(C)c1F`, the logD in data set [1] was determined as 3.9. This compound also yielded an IC50 in data set [2] of 20 nM.
For `O=S(=O)(c1cccnc1)N1[C@H](CO)CC[C@@H]1c1ccc(F)cc1`, the logD in data set [1] amounted to 1.1. In addition, the IC50 in data set [2] was more than 20000 nM.
The compound `Cc1cc(S(=O)(=O)N2[C@H](CO)CC[C@@H]2c2ccc(F)cc2)cc(C)c1F` showed a logD in data set [1] of 3.3. In data set [2], this compound yielded an IC50 of 63 nM.
On the same counts, the results for `Cc1cc(C)cc(S(=O)(=O)N2[C@H](CO)CC[C@@H]2c2ccc(F)cc2)c1` are 3.2 and 290 nM.
`Cc1cc(S(=O)(=O)N2[C@H](CO)CC[C@@H]2c2ccc(F)cc2)ccc1F` returned a logD in data set [1] of 2.8. For the same compound, it took 190 nM to reach half-maximal inhibition in data set [2] (IC50).
In the same order, the values of `Cc1cc(S(=O)(=O)N2CCC[C@@H]2c2ccc(F)cc2)cc(C)c1F` are 4.4 and 110 nM.
On the same counts, the results for `Cc1cc(S(=O)(=O)N2[C@H](CNCC(F)(F)F)CC[C@@H]2c2ccc(F)cc2)cc(C)c1F` are 4.3 and more than 20000 nM.
The compound `Cc1cc(S(=O)(=O)N2[C@H](CN(C)C)CC[C@@H]2c2ccc(F)cc2)cc(C)c1F` had a logD in data set [1] of 3.7. In addition, the IC50 in data set [2] is more than 18000 nM.
Compound `O=S(=O)(c1ccccc1)N1[C@H](CO)CC[C@@H]1c1ccc(F)cc1` had a logD in data set [1] of 2.2. In data set [2], the IC50 was more than 19000 nM.
In the same order, the values of `COC[C@@H]1CC[C@H](c2ccc(F)cc2)N1S(=O)(=O)c1cc(C)c(F)c(C)c1` are 3.9 and 270 nM.
In the same order, the values of `Cc1cc(S(=O)(=O)N2[C@H](CO)CC[C@@H]2c2ccc(F)cc2)cc(Cl)c1F` are 3.6 and 130 nM.
In the case of `CNC[C@@H]1CC[C@H](c2ccc(F)cc2)N1S(=O)(=O)c1cc(C)c(F)c(C)c1`, the logD in data set [1] is 2.7. This compound had an IC50 in data set [2] of more than 20000 nM.
For `Cc1cc(S(=O)(=O)N2C[C@H](F)C[C@@H]2c2ccc(F)cc2)cc(C)c1F`, the logD in data set [1] was 2.6. In data set [2], this compound showed an IC50 of 380 nM.
As for `Cc1cc(C(=O)N2[C@H](CO)CC[C@@H]2c2ccc(F)cc2)cc(C)c1F`, the logD in data set [1] was determined as 3.1. This compound yielded an IC50 in data set [2] of more than 20000 nM.
In the same order, the values of `O=S(=O)(c1cc(Cl)c(F)c(Cl)c1)N1CCC[C@@H]1c1ccc(F)cc1` are 4.6 and 350 nM.
Regarding `O=S(=O)(c1ccc(F)cc1)N1CCC[C@@H]1c1ccc(F)cc1`, the logD in data set [1] worked out at 3.2. The same compound displayed an IC50 in data set [2] of 6600 nM.
In the same order, the values of `O=S(=O)(c1ccc(F)cn1)N1[C@H](CO)CC[C@@H]1c1ccc(F)cc1` are 2 and more than 20000 nM.
On the same counts, the results for `Cc1cc(CN2[C@H](CO)CC[C@@H]2c2ccc(F)cc2)cc(C)c1F` are 4 and 6700 nM.
On to `Cc1cc(S(=O)(=O)N2CC(F)(F)C[C@@H]2c2ccc(F)cc2)cc(C)c1F`, for which, in data set [1], the logD was determined as 4.2. For the same compound, in data set [2], the midpoint of inhibition, the IC50, lay at 23 nM.
As for `O=S(=O)(c1cc(Cl)c(F)c(Cl)c1)N1[C@H](CO)CC[C@@H]1c1ccc(F)cc1`, in data set [1], the logD was determined as 3.8. Further, the IC50 is 110 nM in data set [2] and 7300 nM in data set [3]. In addition, the Papp in data set [4] worked out at 5.7 ×10⁻⁶ cm/s. Moreover, in data set [5], the fraction unbound is 0.006. For the same compound, in data set [6], the solubility kinetic was less than 1 µM.
